13 compounds from patent US20220389061A1, “IMMUNOMODULATORS” (priority 2019, published 2022) can be followed below.

Molecules are shown by their SMILES. Starred links: 1 amine or outer side, 2 acyl side, 3 side chain; linkers in the order of their positions; H or OH if unused. Positions of bridges follow the written chain, without caps; N, C: chain ends. Non-standard residues stand in square brackets, D forms with d. Residues, ends and D or L forms follow the SMILES beside them. Groups on a side chain read outwards from the residue. *: point of attachment. Trp(1-CH2COOH) = N[C@@H](Cc1cn(CC(=O)O)c2ccccc12)C(=O)O; NH(benzothiophen-5-yl) = c1cc2cc(N*)ccc2s1; Benzofuran(2-CO) = O=C(c1cc2ccccc2o1)*; X8 = NC(=O)c1c[nH]c2c(NC(=S)*)cccc12; NH(1-naphthyl) = c1ccc2c(N*)cccc2c1; X31 = S=C(Nc1cccc2c(Cl)c[nH]c12)*; Hyp = O=C(O)[C@@H]1C[C@@H](O)CN1; NMeNle = CCCC[C@H](NC)C(=O)O; X12 = S=C(Nc1ccc2ccccc2c1)*; X20 = O=C(Oc1ccc2ccccc2c1)*; X5 = S=C(Nc1cccc2ccccc12)*; X59 = S=C(Nc1ccc2nsnc2c1)*; NMeA = CN[C@@H](C)C(=O)O; Dab = NCC[C@H](N)C(=O)O; X45 = c1ccc2sc(N*)cc2c1; Dap = NC[C@H](N)C(=O)O; CO = O=C([*:1])[*:2]

The target in the first test is T1, PD-1/PD-L1 (Homo sapiens, UniProt Q9NZQ7).
T1 construct: TVMV protease site linker (C); made in house; host or cells: HEK293T cells
T1 sequence (Q9NZQ7 18-239): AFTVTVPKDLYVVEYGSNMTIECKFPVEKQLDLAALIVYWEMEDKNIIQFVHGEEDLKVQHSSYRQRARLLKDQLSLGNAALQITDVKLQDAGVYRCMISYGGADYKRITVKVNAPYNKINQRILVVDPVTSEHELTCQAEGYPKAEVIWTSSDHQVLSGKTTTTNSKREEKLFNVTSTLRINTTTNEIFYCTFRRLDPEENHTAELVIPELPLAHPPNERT
Kind of test: PD-1/PD-L1 Homogenous Time-Resolved Fluorescence (HTRF) binding assay.
Conditions: not given
In outline:
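Compounds preincubated 15 min with PD-L1-His (10 nM final), then PD-1-Ig (20 nM final) added for 15 min in dPBS with 0.1% BSA, 0.05% Tween-20. Detection by Eu-cryptate anti-Ig (1 nM) and APC anti-His (20 nM) HTRF.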
(TR-FRET usually uses a lanthanide donor and a delayed reading to cut background.)
For orientation: IC50 means the midpoint of a concentration-inhibition curve. With `CCCC[C@H]1C(=O)N(C)[C@@H](CCCC)C(=O)N[C@@H](CC(C)C)C(=O)N[C@H](C(=O)NCC(N)=O)CSCC(=O)N[C@@H](Cc2ccc(O)cc2)C(=O)N(C)[C@@H](C)C(=O)N[C@@H](CC(N)=O)C(=O)N2CCC[C@H]2C(=O)N[C@@H](CNC(=O)Oc2ccc3ccccc3c2)C(=O)N[C@@H](CC(C)C)C(=O)N2C[C@H](O)C[C@H]2C(=O)N[C@@H](Cc2c[nH]c3ccccc23)C(=O)N[C@@H](CCNC(=O)Oc2ccc3ccccc3c2)C(=O)N[C@@H](Cc2cn(CC(=O)O)c3ccccc23)C(=O)N1C` [Example 3037] ({CH2CO}-Y[NMeA]NP[Dap](X20)L[Hyp]W[Dab](X20)[Trp(1-CH2COOH)][NMeNle][NMeNle]LCG-NH2; thioether N-14), the concentration for half-maximal inhibition (IC50) was 5 nM.

The compound `CCCC[C@H]1C(=O)N(C)[C@@H](CCCC)C(=O)N[C@@H](CC(C)C)C(=O)N[C@H](C(=O)NCC(N)=O)CSCC(=O)N[C@@H](Cc2ccc(O)cc2)C(=O)N(C)[C@@H](C)C(=O)N[C@@H](CC(N)=O)C(=O)N2CCC[C@H]2C(=O)N[C@@H](CNC(=O)Nc2cccc3ccccc23)C(=O)N[C@@H](CC(C)C)C(=O)N2C[C@H](O)C[C@H]2C(=O)N[C@@H](Cc2c[nH]c3ccccc23)C(=O)N[C@@H](CCN)C(=O)N[C@@H](Cc2cn(CC(=O)O)c3ccccc23)C(=O)N1C` [Example 3040] ({CH2CO}-Y[NMeA]NP[Dap]([CO-NH(1-naphthyl)])L[Hyp]W[Dab][Trp(1-CH2COOH)][NMeNle][NMeNle]LCG-NH2; thioether N-14) came in with an IC50 of 0.8 nM.

The same test, now with this note: PD-L1-His 10 nM pre-incubated with inhibitor, PD-1-Ig 20 nM; read-out: HTRF IC50.
As to `CCCC[C@H]1C(=O)N(C)[C@@H](CCCC)C(=O)N[C@@H](CC(C)C)C(=O)N[C@H](C(=O)NCC(N)=O)CSCC(=O)N[C@@H](Cc2ccc(O)cc2)C(=O)N(C)[C@@H](C)C(=O)N[C@@H](CC(N)=O)C(=O)N2CCC[C@H]2C(=O)N[C@@H](CNC(=O)Nc2ccc3sccc3c2)C(=O)N[C@@H](CC(C)C)C(=O)N2C[C@H](O)C[C@H]2C(=O)N[C@@H](Cc2c[nH]c3ccccc23)C(=O)N[C@@H](CCN)C(=O)N[C@@H](Cc2cn(CC(=O)O)c3ccccc23)C(=O)N1C` [Example 3026] ({CH2CO}-Y[NMeA]NP[Dap]([CO-NH(benzothiophen-5-yl)])L[Hyp]W[Dab][Trp(1-CH2COOH)][NMeNle][NMeNle]LCG-NH2; thioether N-14), the 50% inhibitory concentration (IC50) was determined as 3.3 nM.

For `CCCC[C@H]1C(=O)N(C)[C@@H](CCCC)C(=O)N[C@@H](CC(C)C)C(=O)N[C@H](C(=O)NCC(N)=O)CSCC(=O)N[C@@H](Cc2ccc(O)cc2)C(=O)N(C)[C@@H](C)C(=O)N[C@@H](CC(N)=O)C(=O)N2CCC[C@H]2C(=O)N[C@@H](CN)C(=O)N[C@@H](CC(C)C)C(=O)N2C[C@H](O)C[C@H]2C(=O)N[C@@H](Cc2c[nH]c3ccccc23)C(=O)N[C@@H](CCNC(=S)Nc2cccc3c(C(N)=O)c[nH]c23)C(=O)N[C@@H](Cc2cn(CC(=O)O)c3ccccc23)C(=O)N1C` [Example 3027] ({CH2CO}-Y[NMeA]NP[Dap]L[Hyp]W[Dab](X8)[Trp(1-CH2COOH)][NMeNle][NMeNle]LCG-NH2; thioether N-14), the IC50 turned out to be 3.9 nM.

Consider `CCCC[C@H]1C(=O)N(C)[C@@H](CCCC)C(=O)N[C@@H](CC(C)C)C(=O)N[C@H](C(=O)NCC(N)=O)CSCC(=O)N[C@@H](Cc2ccc(O)cc2)C(=O)N(C)[C@@H](C)C(=O)N[C@@H](CC(N)=O)C(=O)N2CCC[C@H]2C(=O)N[C@@H](CNC(=S)Nc2ccc3ccccc3c2)C(=O)N[C@@H](CC(C)C)C(=O)N2C[C@H](O)C[C@H]2C(=O)N[C@@H](Cc2c[nH]c3ccccc23)C(=O)N[C@@H](CCN)C(=O)N[C@@H](Cc2cn(CC(=O)O)c3ccccc23)C(=O)N1C` [Example 3028] ({CH2CO}-Y[NMeA]NP[Dap](X12)L[Hyp]W[Dab][Trp(1-CH2COOH)][NMeNle][NMeNle]LCG-NH2; thioether N-14), for which the IC50 is 0.6 nM.

Turning to `CCCC[C@H]1C(=O)N(C)[C@@H](CCCC)C(=O)N[C@@H](CC(C)C)C(=O)N[C@H](C(=O)NCC(N)=O)CSCC(=O)N[C@@H](Cc2ccc(O)cc2)C(=O)N(C)[C@@H](C)C(=O)N[C@@H](CC(N)=O)C(=O)N2CCC[C@H]2C(=O)N[C@@H](CN)C(=O)N[C@@H](CC(C)C)C(=O)N2C[C@H](O)C[C@H]2C(=O)N[C@@H](Cc2c[nH]c3ccccc23)C(=O)N[C@@H](CCNC(=S)Nc2cccc3ccccc23)C(=O)N[C@@H](Cc2cn(CC(=O)O)c3ccccc23)C(=O)N1C` [Example 3029] ({CH2CO}-Y[NMeA]NP[Dap]L[Hyp]W[Dab](X5)[Trp(1-CH2COOH)][NMeNle][NMeNle]LCG-NH2; thioether N-14), the IC50 is 0.1 nM.

On to `CCCC[C@H]1C(=O)N(C)[C@@H](CCCC)C(=O)N[C@@H](CC(C)C)C(=O)N[C@H](C(=O)NCC(N)=O)CSCC(=O)N[C@@H](Cc2ccc(O)cc2)C(=O)N(C)[C@@H](C)C(=O)N[C@@H](CC(N)=O)C(=O)N2CCC[C@H]2C(=O)N[C@@H](CNC(=S)Nc2ccc3nsnc3c2)C(=O)N[C@@H](CC(C)C)C(=O)N2C[C@H](O)C[C@H]2C(=O)N[C@@H](Cc2c[nH]c3ccccc23)C(=O)N[C@@H](CCN)C(=O)N[C@@H](Cc2cn(CC(=O)O)c3ccccc23)C(=O)N1C` [Example 3030] ({CH2CO}-Y[NMeA]NP[Dap](X59)L[Hyp]W[Dab][Trp(1-CH2COOH)][NMeNle][NMeNle]LCG-NH2; thioether N-14), for which the IC50 was 3 nM.

With `CCCC[C@H]1C(=O)N(C)[C@@H](CCCC)C(=O)N[C@@H](CC(C)C)C(=O)N[C@H](C(=O)NCC(N)=O)CSCC(=O)N[C@@H](Cc2ccc(O)cc2)C(=O)N(C)[C@@H](C)C(=O)N[C@@H](CC(N)=O)C(=O)N2CCC[C@H]2C(=O)N[C@@H](CN)C(=O)N[C@@H](CC(C)C)C(=O)N2C[C@H](O)C[C@H]2C(=O)N[C@@H](Cc2c[nH]c3ccccc23)C(=O)N[C@@H](CCNC(=S)Nc2cccc3c(Cl)c[nH]c23)C(=O)N[C@@H](Cc2cn(CC(=O)O)c3ccccc23)C(=O)N1C` [Example 3031] ({CH2CO}-Y[NMeA]NP[Dap]L[Hyp]W[Dab](X31)[Trp(1-CH2COOH)][NMeNle][NMeNle]LCG-NH2; thioether N-14), the half-maximal inhibitory concentration (IC50) is 3.1 nM.

Take `CCCC[C@H]1C(=O)N(C)[C@@H](CCCC)C(=O)N[C@@H](CC(C)C)C(=O)N[C@H](C(=O)NCC(N)=O)CSCC(=O)N[C@@H](Cc2ccc(O)cc2)C(=O)N(C)[C@@H](C)C(=O)N[C@@H](CC(N)=O)C(=O)N2CCC[C@H]2C(=O)N[C@@H](CNC(=O)Nc2cc3ccccc3s2)C(=O)N[C@@H](CC(C)C)C(=O)N2C[C@H](O)C[C@H]2C(=O)N[C@@H](Cc2c[nH]c3ccccc23)C(=O)N[C@@H](CCN)C(=O)N[C@@H](Cc2cn(CC(=O)O)c3ccccc23)C(=O)N1C` [Example 3032] ({CH2CO}-Y[NMeA]NP[Dap]([CO-X45])L[Hyp]W[Dab][Trp(1-CH2COOH)][NMeNle][NMeNle]LCG-NH2; thioether N-14): the half-inhibitory concentration (IC50) is 9.2 nM.

On to `CCCC[C@H]1C(=O)N(C)[C@@H](CCCC)C(=O)N[C@@H](CC(C)C)C(=O)N[C@H](C(=O)NCC(N)=O)CSCC(=O)N[C@@H](Cc2ccc(O)cc2)C(=O)N(C)[C@@H](C)C(=O)N[C@@H](CC(N)=O)C(=O)N2CCC[C@H]2C(=O)N[C@@H](CNC(=S)Nc2cccc3ccccc23)C(=O)N[C@@H](CC(C)C)C(=O)N2C[C@H](O)C[C@H]2C(=O)N[C@@H](Cc2c[nH]c3ccccc23)C(=O)N[C@@H](CCNC(=S)Nc2cccc3ccccc23)C(=O)N[C@@H](Cc2cn(CC(=O)O)c3ccccc23)C(=O)N1C` [Example 3033] ({CH2CO}-Y[NMeA]NP[Dap](X5)L[Hyp]W[Dab](X5)[Trp(1-CH2COOH)][NMeNle][NMeNle]LCG-NH2; thioether N-14), for which the IC50 turned out to be 1.5 nM.

For the compound `CCCC[C@H]1C(=O)N(C)[C@@H](CCCC)C(=O)N[C@@H](CC(C)C)C(=O)N[C@H](C(=O)NCC(N)=O)CSCC(=O)N[C@@H](Cc2ccc(O)cc2)C(=O)N(C)[C@@H](C)C(=O)N[C@@H](CC(N)=O)C(=O)N2CCC[C@H]2C(=O)N[C@@H](CNC(=O)c2cc3ccccc3o2)C(=O)N[C@@H](CC(C)C)C(=O)N2C[C@H](O)C[C@H]2C(=O)N[C@@H](Cc2c[nH]c3ccccc23)C(=O)N[C@@H](CCN)C(=O)N[C@@H](Cc2cn(CC(=O)O)c3ccccc23)C(=O)N1C` [Example 3034] ({CH2CO}-Y[NMeA]NP[Dap](Benzofuran(2-CO))L[Hyp]W[Dab][Trp(1-CH2COOH)][NMeNle][NMeNle]LCG-NH2; thioether N-14), the half-maximal inhibitory concentration (IC50) was found to be 3.2 nM.

On to `CCCC[C@H]1C(=O)N(C)[C@@H](CCCC)C(=O)N[C@@H](CC(C)C)C(=O)N[C@H](C(=O)NCC(N)=O)CSCC(=O)N[C@@H](Cc2ccc(O)cc2)C(=O)N(C)[C@@H](C)C(=O)N[C@@H](CC(N)=O)C(=O)N2CCC[C@H]2C(=O)N[C@@H](CNC(=O)c2cc3ccccc3o2)C(=O)N[C@@H](CC(C)C)C(=O)N2C[C@H](O)C[C@H]2C(=O)N[C@@H](Cc2c[nH]c3ccccc23)C(=O)N[C@@H](CCNC(=O)c2cc3ccccc3o2)C(=O)N[C@@H](Cc2cn(CC(=O)O)c3ccccc23)C(=O)N1C` [Example 3036] ({CH2CO}-Y[NMeA]NP[Dap](Benzofuran(2-CO))L[Hyp]W[Dab](Benzofuran(2-CO))[Trp(1-CH2COOH)][NMeNle][NMeNle]LCG-NH2; thioether N-14), for which the IC50 was determined as 2.7 nM.

`CCCC[C@H]1C(=O)N(C)[C@@H](CCCC)C(=O)N[C@@H](CC(C)C)C(=O)N[C@H](C(=O)NCC(N)=O)CSCC(=O)N[C@@H](Cc2ccc(O)cc2)C(=O)N(C)[C@@H](C)C(=O)N[C@@H](CC(N)=O)C(=O)N2CCC[C@H]2C(=O)N[C@@H](CN)C(=O)N[C@@H](CC(C)C)C(=O)N2C[C@H](O)C[C@H]2C(=O)N[C@@H](Cc2c[nH]c3ccccc23)C(=O)N[C@@H](CCNC(=O)Nc2ccc3sccc3c2)C(=O)N[C@@H](Cc2cn(CC(=O)O)c3ccccc23)C(=O)N1C` [Example 3038] ({CH2CO}-Y[NMeA]NP[Dap]L[Hyp]W[Dab]([CO-NH(benzothiophen-5-yl)])[Trp(1-CH2COOH)][NMeNle][NMeNle]LCG-NH2; thioether N-14): the concentration for half-maximal inhibition (IC50) was 5.3 nM.
